The subject of one data set is MCF7. The data set is described as follows: Cytotoxicity against human MCF7 cells assessed as reduction in growth rate at 100 uM after 48 hrs. The class given is functional. More on the design: scale not given: the % may be the effect or the level left.
Another data set has as its system NCI-H460. The data set is described as follows: Cytotoxicity against human H460 cells assessed as reduction in growth rate at 100 uM after 48 hrs. The data set is classed as functional. More on the design: scale not given: the % may be the effect or the level left.
In a further data set the test system is SF-268. The data set is described as follows: Cytotoxicity against human SF268 cells assessed as reduction in growth rate at 100 uM after 48 hrs. The data set is classed as functional, cell-based.
A further data set relates to PBMC. The data set is described as follows: Cytotoxicity against human PBMC assessed as reduction in growth rate at 100 uM after 48 hrs. The data set is classed as cell-based.

This passage reports Activity results from ChEMBL document CHEMBL1148967, “Correction of the structure of a new sesquiterpene from Cistus creticus ssp. creticus” (J Nat Prod, 2004).

The source made the active and inactive calls. The rule behind the calls is not given here.

`C=C(C)[C@H]1CC=C2CCC[C@@H](C)[C@]2(C)C1`: the Activity is given as 93.6% in the data set on MCF7, 80.8% in the data set with NCI-H460 and “Non-toxic” in the data set on PBMC. Moreover, the result in the data set on SF-268 was inactive.
